Results taken from patent US11064699B2, “Condensed heterocyclic compound or salt thereof, agricultural and horticultural insecticide comprising the compound or the salt, and method for using the insecticide” (Nihon Nohyaku Co., Ltd., priority 2017, dated 2021).

Legend:
Laodelphax striatellus = assay: Insecticidal test on Laodelphax striatellus (rice seedling dip); type: in vivo; settings: 192 h, rice seedlings dipped 30 seconds, 3rd-instar larvae, 8 days after inoculation, read-out: insecticidal efficacy (corrected mortality rate), activity level
Text: Insecticidal Test on Laodelphax striatellus
The condensed heterocyclic compounds represented by the general formula (1) of the present invention or salts thereof were separately dispersed in water and diluted to 500 ppm. Rice plant seedlings (variety: Nihonbare) were dipped in the agrochemical dispersions for 30 seconds. After air-dried, each seedling was put into a separate glass test tube and inoculated with ten 3rd-instar larvae of Laodelphax striatellus, and then the glass test tubes were capped with cotton plugs. At 8 days after the inoculation, the numbers of surviving larvae and dead larvae were counted, the corrected mortality rate was calculated according to the formula shown below, and the insecticidal efficacy was evaluated according to the criteria shown below. Corrected mortality rate (%)=100×(Survival rate in a non-treatment plot−Survival rate in a treatment plot)/Survival rate in a non-treatment plot [Math. 2] Corrected Mortality Rate A: the corrected mortality rate is 100%. B: the corrected mortality rate is 90 to 99%. C: the corrected mortality rate is 80 to 89%. D: the corrected mortality rate is 50 to 79%.

Plutella xylostella = assay: Insecticidal test on Plutella xylostella (dip of Chinese cabbage seedlings with laid eggs); type: in vivo; settings: 144 h, seedlings with laid eggs dipped about 30 seconds, 25° C., 6 days after dip treatment, criteria of Test Example 2, read-out: insecticidal efficacy (corrected mortality rate), activity level
Text: Insecticidal Test on Plutella xylostella
Adults of Plutella xylostella were released onto Chinese cabbage seedlings and allowed to lay eggs thereon. At 2 days after the release of the adults, the Chinese cabbage seedlings with laid eggs were dipped for about 30 seconds in agrochemical dispersions diluted to 500 ppm, each of which contained a different condensed heterocyclic compound represented by the general formula (1) of the present invention as an active ingredient. After air-dried, the seedlings were kept in a thermostatic chamber at 25° C. At 6 days after the dip treatment, the number of hatched larvae per plot was counted, the mortality rate was calculated according to the formula shown below, and the insecticidal efficacy was evaluated according to the criteria of Test Example 2. This test was conducted in triplicate using 10 adults of Plutella xylostella per plot. Corrected mortality rate (%)=100×(Number of hatched larvae in a non-treatment plot−Number of hatched larvae in a treatment plot)/Number of hatched larvae in a non-treatment plot [Math. 3]

| Compound | mortality at 500 ppm (Laodelphax striatellus) | mortality at 500 ppm (Plutella xylostella) |
| --- | --- | --- |
| CCS(=O)(=O)c1cc2ccc(C(F)(F)F)cc2nc1-c1nnc2cc(C(F)(F)C(F)(F)F)ncn12 [Compound 4-27, 3-(ethylsulfonyl)-2-(7-pentafluoroethyl)-[1,2,4]triazolo[4,3-c]pyrimidin-3-yl-7-(trifluoromethyl) quinoline] | 100% | 100% |
| CCS(=O)(=O)c1cc(-c2cccc(C(F)(F)F)c2)cnc1-c1nnc2cc(C(F)(F)F)ncn12 [Compound 2-36, 3-(3-(ethylsulfonyl)-5-(3-(trifluoromethyl)phenyl)pyridin-2-yl)-(7-trifluoromethyl)-[1,2,4]Triazolo[4,3-c]Pyrimidine] | 100% | 100% |
